# Measured values taken from patent publication US11312769B2, “Anti-TMEFF1 antibodies and antibody drug conjugates” (Bluefin BioMedicine, Inc., priority 2017, dated 2022).
# Tests used:
# [1] = tested on: H526 cells; assay: Growth inhibition and isobologram/combination index, H526; assay type: cell-based, human; conditions: for effect of combination with 30C10-PBD: H526 cells; for IC50: H526, 5 days, alone
# Protocol: (§1) Two SCLC cell lines H526 and H1048, which expresses ˜2,500 copies of TMEFF1 on the cell surface per cell, were seeded onto 96 well plates at 2,000 cells/well on the day of treatment. To distinguish synergy from additivity of the combination of 30C10-PBD with niraparib (selleckchem, Cat # S2741), etoposide (Cell Signaling Technology, Cat #2200S) or cisplatin (Sigma, Cat # P4394), for each combination, a specific isobologram was constructed and the combination-index was calculated as described by Chou, TC and Talalay P (Quanttative analysis of dose-effect relationships: the combined effects of multiple drugs or enzyme inhibitors, Adv Enzyme Regul, 1984). IC50 value was defined as the drug concentration reducing by 50% the growth of treated cells compared with control. IC50 values of each drug was determined by plating H526 or H1048 cells and adding 30C10-PBD, niraparib, etoposide or cisplatin at 10-fold dilutions spanning their probable range of activity. Concentrations ranging from 0.0001-1 ug/ml were used for 30C10-PBD, from 0.01 to 100 uM for Niraparib, from 0.001-10 uM for etoposide and from 0.01-100 uM for cisplatin. Cell viability was measured 5 days later by CellTiter Glo® Luminescent Cell viability Assay™ (Promega, Madison, Wis.) according to manufacturer's instructions. Each IC50 was graphically derived from the growth curve graphed by Prism™ showing percent survival vs log drug concentrations.
# (§2) Combination-index (CI) was defined as follows: CI=[C]A50/IC50A+[C]B50/IC50B, where [C]A50 and [C]B50 are the concentrations in combination inducing the IC50 effect. A CI of less than, equal to, or more than 1 indicates, respectively, synergy, additivity, or antagonism.
# (§3) The 50% growth-inhibitory activity of the drug combinations was measured after 5 days of treatment. The line of additivity for the isobologram was constructed by interpolating the two points corresponding to the IC50 of the two drugs alone. Graphically, synergy, additivity, and antagonism are indicated by a point plotted below, on, or above the line of additivity, respectively.
# [2] = tested on: H1048 cells; assay: Growth inhibition and isobologram/combination index, H1048; assay type: cell-based, human; conditions: for effect of combination with 30C10-PBD: H1048 cells; for IC50: H1048, 5 days, alone
# Protocol: as §1, §2, §3
# [3] = H526, combination with 30C10-PBD 0.3 ng/ml
# [4] = H526, combination with 30C10-PBD 0.6 ng/ml
# [5] = H1048, combination with 30C10-PBD 0.1 ng/ml
# [6] = H1048, combination with 30C10-PBD 0.3 ng/ml
SMILES,"CI [1, 3]","effect [1, 3]","CI [1, 4]","effect [1, 4]",effect of combination with 30C10-PBD [1],"IC50 ([1]; Homo sapiens, NCI-H526, 120 h) [nM]","CI [2, 5]","effect [2, 5]","CI [2, 6]","effect [2, 6]",effect of combination with 30C10-PBD [2],"IC50 ([2]; Homo sapiens, NCI-H1048, 120 h) [nM]",IC50 [1] [nM],IC50 [2] [nM],"effect ([2]; H1048, combination with 30C10-PBD 0.1 ng/ml, listed as etoposide)","effect ([2]; H1048, combination with 30C10-PBD 0.3 ng/ml, listed as etoposide)"
"NC(=O)c1cccc2cn(-c3ccc([C@@H]4CCCNC4)cc3)nc12 [Niraparib, niraparib]",0.762,"synergy (A CI of less than, equal to, or more than 1 indicates, respectively, synergy, additivity, or antagonism)",0.619,"synergy (A CI of less than, equal to, or more than 1 indicates, respectively, synergy, additivity, or antagonism)",Synergistic effect,3240,0.949,"synergy (A CI of less than, equal to, or more than 1 indicates, respectively, synergy, additivity, or antagonism)",0.888,"synergy (A CI of less than, equal to, or more than 1 indicates, respectively, synergy, additivity, or antagonism)",Synergistic effect,1070,–,–,–,–
"N.N.[Cl][Pt][Cl] [Cisplatin, cisplatin]",0.865,"synergy (A CI of less than, equal to, or more than 1 indicates, respectively, synergy, additivity, or antagonism)",0.703,"synergy (A CI of less than, equal to, or more than 1 indicates, respectively, synergy, additivity, or antagonism)",synergistic effects,–,0.985,additive,1.008,additive,additive effects,–,240,620,–,–
"COc1cc([C@@H]2c3cc4c(cc3[C@@H](O[C@@H]3O[C@@H]5CO[C@@H](C)O[C@H]5[C@H](O)[C@H]3O)[C@H]3COC(=O)[C@H]23)OCO4)cc(OC)c1O [Etoposide, etoposide]",0.847,"synergy (A CI of less than, equal to, or more than 1 indicates, respectively, synergy, additivity, or antagonism)",0.801,"synergy (A CI of less than, equal to, or more than 1 indicates, respectively, synergy, additivity, or antagonism)",synergistic effect,–,0.932,"synergy (A CI of less than, equal to, or more than 1 indicates, respectively, synergy, additivity, or antagonism)",0.998,additive,–,–,330,160,synergistic effect,additive effect
